Experimental data reported in patent publication US20240166626A1, “Compounds and Methods for Preventing, Treating, or Ameliorating Airway Disease” (THOMAS JEFFERSON UNIVERSITY, priority 2021, published 2024).

Biological target: T1, GRK2 (Homo sapiens, UniProt P25098)
T1 sequence (P25098 1-689): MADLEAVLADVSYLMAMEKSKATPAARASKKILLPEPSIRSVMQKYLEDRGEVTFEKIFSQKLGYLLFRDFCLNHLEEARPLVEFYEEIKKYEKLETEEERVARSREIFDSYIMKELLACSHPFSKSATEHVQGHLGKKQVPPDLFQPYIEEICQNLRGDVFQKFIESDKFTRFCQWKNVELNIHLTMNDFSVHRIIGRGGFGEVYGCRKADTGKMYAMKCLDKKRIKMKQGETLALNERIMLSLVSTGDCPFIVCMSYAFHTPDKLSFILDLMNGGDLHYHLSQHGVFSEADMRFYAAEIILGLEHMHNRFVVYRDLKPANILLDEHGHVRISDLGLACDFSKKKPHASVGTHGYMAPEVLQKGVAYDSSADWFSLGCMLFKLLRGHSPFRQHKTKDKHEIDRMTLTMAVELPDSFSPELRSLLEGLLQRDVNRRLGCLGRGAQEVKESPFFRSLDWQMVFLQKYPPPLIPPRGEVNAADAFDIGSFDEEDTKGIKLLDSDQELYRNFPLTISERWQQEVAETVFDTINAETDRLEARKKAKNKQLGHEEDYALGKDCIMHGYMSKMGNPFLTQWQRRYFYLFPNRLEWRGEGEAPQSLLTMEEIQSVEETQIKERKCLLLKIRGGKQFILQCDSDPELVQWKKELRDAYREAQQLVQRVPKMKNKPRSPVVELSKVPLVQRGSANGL
Experiment: In vitro tubulin phosphorylation assay with purified GRK2
Assay type: biochemical
Settings: 10 μM DFPQ, 60-minute time course, FIG. 3C
Protocol: FIGS. 3A-3D: DFPQ inhibits GRK-mediated phosphorylation of the β2AR. FIG. 3A: Representative time course of agonist promoted phosphorylation of the β2AR. […] Cells were lysed and the FLAG-β2AR was immunoprecipitated. Phosphorylation at […] and 356 was analyzed by western blot using a pSer^355/356 antibody while total β2AR was measured using a β2AR C-terminal antibody. The western blot is representative of at least 3 experiments and is quantified in FIG. 3B. FIG. 3C: […] FIG. 3D: Bar graphs represent pixel densitometry of radiolabeled tubulin at the 60 min timepoint from 4 experiments. […]® ADRB2 cells (DiscoveRx) were maintained with the AssayCompleteTM Cell Culture kit (DiscoveRx catalog #92-[…]). […] Cells were read every three minutes for 18 minutes on a PolarStar Optima plate reader (BMG) to establish peak signal. […] Luminescence was determined at room temperature (23-25° C.) on a PolarStar Optima plate reader (BMG). […] Relative assay bias was calculated from the ratio of normalized cAMP and arrestin recruitment responses. […] BRET was measured using a Tecan Infinite F500 microplate reader. […] Bound [35 S]GTPγS was collected by rapid filtration on GF/B filters, washed 4 times with 4 ml of cold GTPγS wash buffer and analyzed by liquid scintillation counting. […] Immunoprecipitated proteins were separated by SDS-PAGE and analyzed by western blot using a β2AR C-terminal tail or phospho-specific antibody. […]

phosphorylation of tubulin by GRK2: unaffected
SMILES: Fc1ccc(Nc2nc(NC3CCCCC3)c3ccccc3n2)cc1F [DFPQ, N^4-cyclohexyl-N^2-(3,4-difluorophenyl)quinazoline-2,4-diamine]
